A word on the IC50: it is the concentration needed to halve the response being measured.

Data on 4 compounds can be found in patent publication US4880817A, “O-functionalized derivatives of substituted isoquinolin-3-ols having cardiotonic and/or phosphodiesterase fraction III inhibiting properties and/or renal vasodilating properties” (Ortho Pharmaceutical Corporation, priority 1987, dated 1989).

Experiment [1] relates to adult mongrel dogs. In words: Acute in vivo cardiotonic activity in anesthetized dogs. Further details: species or system mongrel dog. Particulars: Canis lupus familiaris, dose 1.87 mpk, iv, relative to controls. The method, then:
The acute in vivo cardiotonic activity of compounds prepared according to the present invention was determined according to a modification of the procedure described by Alousi et al., Circ.
In particular, adult mongrel dogs were anesthetized with sodium pentobarbital and were artificially respired. Arterial pressure was monitored via a femoral artery, and the pulse pressure was used to trigger a cardiotachometer for heart rate. Left ventricular pressure was determined with a Millar catheter, and dP/dT (the change in ventricular pressure with time) was derived. Cardiac output was determined by measuring ascending aortic blood flow with an electromagnetic flow probe, and myocardial contractile force was measured with a Walton Brodie strain gauge sutured to the right ventricle. Lead II EKG was also recorded.
A standard dose (10 μg/kg/min) of dopamine was administered to assess myocardial responsiveness.
Compounds of the invention were administered by intravenous infusion and the effects on cardiovascular parameters were determined.

The target in experiment [2] is T1, Phosphodiesterase Fraction III (Canis lupus familiaris, UniProt A0A8I3NYE0).
T1 construct: The fraction III enzyme was isolated as an isomzyme from the crude canine heart homogenate; from tissue; host or cells: canine heart (crude homogenate, ion exchange chromatography)
T1 sequence (A0A8I3NYE0 1-1135): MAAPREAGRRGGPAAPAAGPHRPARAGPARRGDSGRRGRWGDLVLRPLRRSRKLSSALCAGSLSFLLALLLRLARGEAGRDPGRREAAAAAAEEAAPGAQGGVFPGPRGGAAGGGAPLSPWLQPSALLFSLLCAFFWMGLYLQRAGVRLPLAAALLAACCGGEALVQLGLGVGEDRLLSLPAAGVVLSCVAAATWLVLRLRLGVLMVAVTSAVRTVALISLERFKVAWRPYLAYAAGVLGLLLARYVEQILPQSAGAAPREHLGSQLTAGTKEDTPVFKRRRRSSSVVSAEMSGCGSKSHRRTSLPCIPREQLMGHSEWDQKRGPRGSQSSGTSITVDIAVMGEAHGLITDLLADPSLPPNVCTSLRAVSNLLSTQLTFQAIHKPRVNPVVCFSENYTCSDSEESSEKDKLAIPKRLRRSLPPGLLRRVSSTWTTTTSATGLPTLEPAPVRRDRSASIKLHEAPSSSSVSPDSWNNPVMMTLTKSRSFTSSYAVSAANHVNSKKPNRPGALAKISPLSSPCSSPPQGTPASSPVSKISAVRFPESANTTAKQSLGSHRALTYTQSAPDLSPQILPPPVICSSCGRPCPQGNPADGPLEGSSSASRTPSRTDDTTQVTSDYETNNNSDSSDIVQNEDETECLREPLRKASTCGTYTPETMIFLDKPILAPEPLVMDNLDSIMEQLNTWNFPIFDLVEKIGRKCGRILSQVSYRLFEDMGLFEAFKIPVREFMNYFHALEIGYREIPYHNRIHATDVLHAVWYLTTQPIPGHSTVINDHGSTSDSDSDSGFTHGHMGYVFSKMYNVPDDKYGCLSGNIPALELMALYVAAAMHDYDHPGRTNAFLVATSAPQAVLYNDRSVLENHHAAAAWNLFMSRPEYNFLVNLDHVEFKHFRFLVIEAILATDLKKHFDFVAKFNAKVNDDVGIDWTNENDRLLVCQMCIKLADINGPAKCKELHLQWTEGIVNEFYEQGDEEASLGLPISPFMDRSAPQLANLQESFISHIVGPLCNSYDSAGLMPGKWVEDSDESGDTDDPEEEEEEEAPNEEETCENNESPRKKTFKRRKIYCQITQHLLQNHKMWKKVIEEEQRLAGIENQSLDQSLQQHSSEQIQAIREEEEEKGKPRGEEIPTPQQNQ
In words: Inhibition of phosphodiesterase fraction III activity. In kind it is biochemical, canine. The method, then:
Thompson et al. described a cyclic nucleotide phosphodiesterase assay in Advances in Cyclic Nucleotide Research, Brooker et al., eds., 10, 69-92 (1979). The following procedure is based on that published assay and measures the ability of compounds to inhibit cyclic nucleotide phosphodiesterase which is an enzyme that converts either cyclic AMP or cyclic GMP to the noncyclized AMP or GMP, respectively.
Compounds were tested at various concentrations in the presence of cyclic AMP (0.10-1.0 μM containing 0.2 microCuries ^3 H-cyclic AMP), cyclic nucleotide phosphodiesterase, and 0.05M Tris-Cl buffer (pH 7.4, containing 5 mM magnesium chloride). After a specified time, the reaction was stopped by heating to 100° C. for 1 minute. After cooling, 0.10 ml of a solution containing snake venom (1 mg/ml) was added, and the reaction was allowed to proceed for 30 min. Termination of this reaction was accomplished by the addition of 1.0 ml of 33 percent DOWEX AGl×8 resin slurry (Dow Chemical Co., Midland, MI) to separate the product from the unconverted substrate. An aliquot was removed from the supernatant and analyzed by liquid scintillation spectrometry.
The fraction III enzyme was isolated as an isomzyme from the crude canine heart homogenate by ion exchange chromatography. The enzyme activity was designated fraction III since it is the third and last phosphodiesterase activity to be eluted from the chromatographic column. The fraction III enzyme has a relatively high affinity and specificity for the cyclic AMP.
Data are presented as the IC50 which is the concentration (in micromoles) of a compound that was required to inhibit 50 percent of the cyclic nucleotide phosphodiesterase activity.

The test system of another experiment is platelet aggregation. Particulars: reported in U.S. Pat. No. 3,870,721; cited from earlier work.
Experiment [3] has as its system adult mongrel dogs. Put plainly: Renal vasodilating activity in anesthetized dogs. Particulars: Canis lupus familiaris. In kind it is in vivo, mongrel dog. In outline:
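In anesthetized adult mongrel dogs, renal artery flow was measured electromagnetically, with carotid blood pressure and heart rate also recorded. Compound was infused i.v. or intra-renal-artery at rising, usually 3-fold, rates for 5 min each, after a 3 μg/kg/min dopamine check. Values are maximal % changes from pre-drug control in RBF, RVR (MABP/RBF), MABP and HR.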

Setting [4] is: read-out: CF: percent change in cardiac force.
The mark [5] stands for this setting: read-out: HR: percent change in heart rate.
[6] abbreviates: read-out: MABP: percent change in mean arterial blood pressure.
Setting [7] is: read-out: dP/dT: maximum percent change in left ventricular pressure with time.
[8] abbreviates: cyclic AMP 0.10-1.0 μM, pH 7.4, enzyme from canine heart homogenate, read-out: IC50.

Read-outs that look alike come from different tables or passages of the source.

`CCOc1cc2c(C)nc(OC(=O)c3ccc(OC)cc3)c([N+](=O)[O-])c2cc1OC` [Cmpd 11]: the change in vivo at 1.87 mg/kg in the experiment on adult mongrel dogs [1] (setting [4]) is 126%; with adult mongrel dogs [1] (setting [5]) it was 25%; in the experiment with adult mongrel dogs [1] (setting [6]) it was -17%; in the experiment on adult mongrel dogs [1] (setting [7]) it was 47%. For the same compound, the IC50 in experiment [2] (setting [8]) was found to be 30 µM.

In the case of `CC(=O)NC1C(=O)NC(=O)c2ccccc21` (stereo not drawn) [4-acetamido-1,2,3,4-tetrahydro 1,3-isoquinolinedione], the “inhibition of platelet aggregation” value in the experiment on platelet aggregation is listed as “inhibit platelet aggregation”.

In the case of `CCOc1cc2c(C)nc(OC(=O)N(C)C)c([N+](=O)[O-])c2cc1OC` [Cmpd 10], the change in vivo at 6.2 mg/kg in the experiment with adult mongrel dogs [3] (read-out: HR: percent change in heart rate, dose 6.2 mpk, relative to controls) is 10%; in the experiment on adult mongrel dogs [3] (read-out: MABP: percent change in mean arterial blood pressure, dose 6.2 mpk, relative to controls) it was -12%; in the experiment on adult mongrel dogs [3] (read-out: RBF: percent change in renal blood flow, dose 6.2 mpk, relative to controls), 46%; in the experiment on adult mongrel dogs [3] (read-out: RVR: percent change in renal vascular resistance, dose 6.2 mpk, relative to controls) it was -39%. Moreover, the change in vivo at 1.87 mg/kg was 70% with adult mongrel dogs [1] (setting [4]), -6% in the experiment on adult mongrel dogs [1] (setting [5]), 18% with adult mongrel dogs [1] (setting [6]) and 91% in the experiment with adult mongrel dogs [1] (setting [7]). The IC50 in experiment [2] came to 45 µM.

Take `CCCCOc1cc2c(C)nc(OC(C)=O)c([N+](=O)[O-])c2cc1OC` [Cmpd 22]: the change in vivo at 6.2 mg/kg in the experiment on adult mongrel dogs [3] (dose 6.2 mpk, relative to controls, read-out: HR: percent change in heart rate) was 25%; with adult mongrel dogs [3] (dose 6.2 mpk, relative to controls, read-out: MABP: percent change in mean arterial blood pressure), -12%; in the experiment on adult mongrel dogs [3] (dose 6.2 mpk, relative to controls, read-out: RBF: percent change in renal blood flow) it was 11%; in the experiment on adult mongrel dogs [3] (dose 6.2 mpk, relative to controls, read-out: RVR: percent change in renal vascular resistance), -22%. For the same compound, the change in vivo at 1.87 mg/kg in the experiment on adult mongrel dogs [1] (setting [4]) is 43%; in the experiment with adult mongrel dogs [1] (setting [5]), 2%; in the experiment with adult mongrel dogs [1] (setting [6]) it was -23%; in the experiment with adult mongrel dogs [1] (setting [7]), 68%. Besides, in experiment [2] (setting [8]), the IC50 was determined as 3.5 µM.
